These results are taken from patent US20250186321A1, “FORMULATION USING AMINO ACID AND CARBOXYLIC ACID, ORGANIC SALT, AND COMPOSITION COMPRISING SAME AND USE THEREOF” (MIYOSHI OIL & FAT CO., LTD., priority 2021, published 2025).

Data set [1] in a line: Appearance of formulation (state at 25° C.). The note with it: 25° C. It is filed as physicochemical. How it is done: Formulations 1 to 427 shown in Tables 1A to 1D were prepared by the above-described method using the components (A) and (B) at the compounding molar ratios shown in the tables, and their states at 25° C. were observed.
Data set [2] in a line: Water retention evaluation (moisture reduction rate). The note with it: for Moisture eduction rate / Moisture content before test (A): 80 wt. % aqueous solution; for Moisture eduction rate: 24 hours at 35° C. and 25% RH, calculated from A and B; for Moisture content before test (A): Karl Fischer; for Presence or absence of hydrates: left until the moisture content remained unchanged, based on final moisture content; for n-hydrate: number of hydrated water based on final moisture content. The format is physicochemical. As to the method: 80 wt. % aqueous solutions of the formulations (organic salts) of the working examples 428 to 459 and comparative examples 1 to 5 in Tables 2A and 2B were prepared, and the water contents were measured using a Karl Fischer moisture meter (CA-200 manufactured by Mitsubishi Chemical Analytech Co., Ltd.). It was confirmed that the water contents of them were 20.0 wt. % (moisture content before test: A). Each of the 1.0 g samples was added to a screw tube, and left uncovered to stand still for 24 hours in a constant temperature and humidity bath (KCL-2000W manufactured by Tokyo Rikakikai Co., Ltd.) which was set at 35° C. and 25% RH. Moisture contents after being left for 24 hours were measured again (moisture content after test: B) to evaluate their water retention property by using the following formula for calculating the moisture reduction rates. After that, it was left to stand still until the moisture content remained unchanged, and determinations of the hydrate and the number of hydrated water were made based on the final moisture contents. • Moisture content before test: A (%) • Moisture content after test: B (%)

Data set [3] can be described thus: Appearance of formulation (state at 25° C.). The format is physicochemical. As to conditions: formulation at the compounding molar ratio listed.
The nature of data set [4]: Hygroscopicity evaluation (moisture content). The format is physicochemical. The note with it: for Hygroscopicity test Moisture content after test: dried in vacuum at 60° C. for 18 hours, then 1 month at room temperature, Karl Fischer; for Presence or absence of hydrates / n-hydrate: hygroscopicity test, Table 3. As to the method: The working examples 460 to 470 and the comparative example 6 in Table 3 were completely dried in a vacuum dryer at 60° C. for 18 hours, and then left to stand still at room temperature for 1 month whose moisture contents were then measured using a Karl Fischer moisture meter (CA-200 manufactured by Mitsubishi Chemical Analytech Co., Ltd.) to evaluate their hygroscopicity.

A further data set relates to Staphylococcus aureus. The experiment in a line: Antibacterial property evaluation 2 (halo test 1). The format is cell-based. The note with it: JISL1902. An excerpt:
The following reagents, etc, were used for minimum inhibitory concentration (MIC) measurement and halo test. • Staphylococcus aureus: strain of NBRC15035, NITE • Escherichia coli: strain of […], NITE • Potassium lactate manufactured by Fujifilm Wako Pure Chemical • Medium of Muller-Hinton broth: Becton, Dickinson and Company • Media for revival of L-dried specimens “DAIGO” manufactured by Fujifilm Wako Pure Chemical • Calcium chloride manufactured by Fuji Film Wako Pure Chemical • Magnesium chloride manufactured by Fuji Film Wako Pure Chemical • […] Snow Brand • Meat extract: from Solabia Biokar Diagnostics • Peptone: from Solabia Biokar Diagnostics • Sodium chloride manufactured by Fuji Film Wako Pure Chemical • Agar manufactured by Fuji Film Wako Pure Chemical […]

For data set [5] the following is noted: Component (A) amino acid; cited from earlier work.
Setting [6] is: components (A) and (B) at the compounding molar ratio shown.

Take `CCCCCC(=O)O.NCCCC[C@H](N)C(=O)O` [Formulation 4]: in data set [1] (setting [6]), the “state at 25° C.” value is listed as “Solid”. Moreover, in data set [2], the Moisture eduction rate is listed as 60.2%, the “Moisture content before test (A)” value worked out at 20.0% and the “Presence or absence of hydrates” value is recorded as “Absent”. For the same compound, the “state at 25° C.” value in data set [3] (Tables 2A/2B) was “Solid”.

On to `CCCCCCCC/C=C\CCCCCCCC(=O)O.NCCCC[C@H](N)C(=O)O` [Formulation 7], for which, in data set [4], the “Hygroscopicity test Moisture content after test” value worked out at 2.1%, the “Presence or absence of hydrates” value is listed as “Present” and the n-hydrate result is on record as “Multihydrate”. The “state at 25° C.” value in data set [1] (setting [6]) was “Solid”. Besides, the “state at 25° C.” value in data set [3] (Table 3) was “Solid”.

As for `NCCCC[C@H](N)C(=O)O.O=C(O)[C@H](O)[C@@H](O)[C@H](O)[C@H](O)CO` [Formulation 9], the “state at 25° C.” value in data set [1] (setting [6]) is recorded as “Liquid”. Besides, in data set [1] (components (A) and (B) at the compounding molar ratio shown, listed as Working example 9), the “state at 25° C.” value is recorded as “liquid”. For the same compound, in data set [2], the Moisture eduction rate is reported as 22.9%, the “Moisture content before test (A)” value is 20.0%, the “Presence or absence of hydrates” value was “Present” and the n-hydrate result was “Dihydrate”. For the same compound, the “state at 25° C.” value in data set [3] (Tables 2A/2B) was “Liquid”.

In the case of `NCCCC[C@H](N)C(=O)O.O=C(O)[C@H](O)[C@@H](O)[C@H](O)[C@H](O)CO.O=C(O)[C@H](O)[C@@H](O)[C@H](O)[C@H](O)CO` [Formulation 30], the “state at 25° C.” value in data set [1] (setting [6]) is on record as “Liquid”; in data set [1] (components (A) and (B) at the compounding molar ratio shown, listed as Working example 30) it was “liquid”; in data set [3] (Tables 2A/2B), “Liquid”. In addition, the Moisture eduction rate in data set [2] was 42.7%. In data set [2], the “Moisture content before test (A)” value is listed as 20.0%. In data set [2], the “Presence or absence of hydrates” value is on record as “Present”.

In the case of `NCCCC[C@H](N)C(=O)O.NCCCC[C@H](N)C(=O)O.NCCCC[C@H](N)C(=O)O.O=C(O)CC(O)(CC(=O)O)C(=O)O.O=C(O)CC(O)(CC(=O)O)C(=O)O` [Formulation 37], the “state at 25° C.” value in data set [1] (setting [6]) is reported as “Liquid”. Also, the “state at 25° C.” value in data set [1] (components (A) and (B) at the compounding molar ratio shown, listed as Working example 37) is recorded as “liquid”. In addition, in data set [2], the Moisture eduction rate is given as 22.4%, the “Moisture content before test (A)” value was found to be 20.0%, the “Presence or absence of hydrates” value is “Present” and the n-hydrate entry is recorded as “Dihydrate”. Besides, in data set [3] (Tables 2A/2B), the “state at 25° C.” value is “Liquid”.

As for `N=C(N)NCCC[C@H](N)C(=O)O.O=C(O)[C@H](O)[C@@H](O)[C@H](O)[C@H](O)CO` [Formulation 51], the “state at 25° C.” value in data set [1] (setting [6]) is “Liquid”. In data set [2], the Moisture eduction rate is 23.7%, the “Moisture content before test (A)” value stood at 20.0%, the “Presence or absence of hydrates” value was “Present” and the n-hydrate result is “Mono-”. For the same compound, the “state at 25° C.” value in data set [3] (Tables 2A/2B) was “Liquid”.

Consider `CC(O)C(=O)O.N=C(N)NCCC[C@H](N)C(=O)O` [Formulation 52], for which the “state at 25° C.” value in data set [1] (setting [6]) is listed as “Liquid”. Also, in data set [2], the Moisture eduction rate is on record as 24.3%, the “Moisture content before test (A)” value turned out to be 20.0%, the “Presence or absence of hydrates” value was “Present” and the n-hydrate entry was “Mono-”. The “state at 25° C.” value in data set [3] (Tables 2A/2B) is given as “Liquid”.

With `N=C(N)NCCC[C@H](N)C(=O)O.O=C(O)CC(O)(CC(=O)O)C(=O)O` [Formulation 58], in data set [1] (setting [6]), the “state at 25° C.” value is recorded as “Liquid”. In data set [2], the Moisture eduction rate is recorded as 21.8%, the “Moisture content before test (A)” value worked out at 20.0% and the “Presence or absence of hydrates” value is on record as “Present”. Besides, the “state at 25° C.” value in data set [3] (Tables 2A/2B) was “Liquid”.

With `CCCCCCCC/C=C\CCCCCCCC(=O)O.CCCCCCCC/C=C\CCCCCCCC(=O)O.N=C(N)NCCC[C@H](N)C(=O)O` [Formulation 70], in data set [4], the “Hygroscopicity test Moisture content after test” value is given as 9.4%, the “Presence or absence of hydrates” value is “Present” and the n-hydrate entry was “Multihydrate”. The “state at 25° C.” value in data set [1] (setting [6]) is reported as “Liquid”. The “state at 25° C.” value in data set [3] (Table 3) is reported as “Liquid”.

Consider `N[C@@H](Cc1c[nH]cn1)C(=O)O.O=C(O)[C@H](O)[C@@H](O)[C@H](O)[C@H](O)CO` [Formulation 93], for which the “state at 25° C.” value in data set [1] (setting [6]) is “Liquid”. In data set [1] (components (A) and (B) at the compounding molar ratio shown, listed as Working example 93), the “state at 25° C.” value is “liquid”. For the same compound, in data set [2], the Moisture eduction rate was 20.4%, the “Moisture content before test (A)” value turned out to be 20.0% and the “Presence or absence of hydrates” value is “Present”. For the same compound, the “state at 25° C.” value in data set [3] (Tables 2A/2B) is on record as “Liquid”.

Regarding `NCC(=O)O.O=C(O)CC(O)(CC(=O)O)C(=O)O` [Formulation 142], the “state at 25° C.” value in data set [1] (setting [6]) is reported as “Liquid”. For the same compound, the “state at 25° C.” value in data set [1] (components (A) and (B) at the compounding molar ratio shown, listed as Working example 142) is given as “liquid”. In addition, in data set [2], the Moisture eduction rate is on record as 32.2%, the “Moisture content before test (A)” value is recorded as 20.0%, the “Presence or absence of hydrates” value is reported as “Present” and the n-hydrate entry is given as “Hemi-”. The “state at 25° C.” value in data set [3] (Tables 2A/2B) was “Liquid”.

Consider `NCCCC(=O)O.O=C(O)[C@H](O)[C@@H](O)[C@H](O)[C@H](O)CO` [Formulation 175], for which, in data set [1] (setting [6]), the “state at 25° C.” value is “Liquid”. Also, the “state at 25° C.” value in data set [1] (components (A) and (B) at the compounding molar ratio shown, listed as Working example 175) is recorded as “liquid”. In data set [2], the Moisture eduction rate is listed as 36.7%, the “Moisture content before test (A)” value is given as 20.0%, the “Presence or absence of hydrates” value was “Present” and the n-hydrate result is given as “Mono-”. In data set [3] (Tables 2A/2B), the “state at 25° C.” value was “Liquid”.

As for `N[C@@H](CO)C(=O)O.O=C(O)[C@H](O)[C@@H](O)[C@H](O)[C@H](O)CO` [Formulation 243], the “state at 25° C.” value in data set [1] (setting [6]) is “Liquid”. The “state at 25° C.” value in data set [1] (components (A) and (B) at the compounding molar ratio shown, listed as Working example 243) is on record as “liquid”. For the same compound, in data set [2], the Moisture eduction rate was 41.6%, the “Moisture content before test (A)” value turned out to be 20.0%, the “Presence or absence of hydrates” value is “Present” and the n-hydrate entry is listed as “Mono-”. The “state at 25° C.” value in data set [3] (Tables 2A/2B) is reported as “Liquid”.

As for `Cl.NCCCC[C@H](N)C(=O)O` [Formulation 429], in data set [2], the Moisture eduction rate is listed as 68.2%, the “Moisture content before test (A)” value turned out to be 20.0% and the “Presence or absence of hydrates” value is listed as “Absent”. The “state at 25° C.” value in data set [3] (Tables 2A/2B) is on record as “Solid”.

Turning to `CCCCCCCC/C=C\CCCCCCCC(=O)[O-].[Na+]` [Formulation 433, reference compound], in data set [4], the “Hygroscopicity test Moisture content after test” value turned out to be 0.0%. For the same compound, in data set [3] (Table 3), the “state at 25° C.” value is “Solid”.

In the case of `CCO` [Formulation 436], the “state at 25° C.” value in data set [1] is on record as “Liquid”. Besides, the “Halo test 1: Presence or absence of halo” value with Staphylococcus aureus (Concentration 10 Wt. % aqueous solution on filter paper) and in the data set on Staphylococcus aureus (Concentration 50 Wt. % aqueous solution on filter paper) was “Absent” in each case.

For `N[C@@H](CS)C(=O)O` [cysteine], in data set [5], the “isoelectric points of amino acids (values in parentheses)” value (“isoelectric points of amino acids” below) is listed as “(5.07)”.

Regarding `CSCC[C@H](N)C(=O)O` [methionine], the “isoelectric points of amino acids” value in data set [5] is given as “(5.74)”.

As for `N[C@@H](Cc1ccccc1)C(=O)O` [phenylalanine], the “isoelectric points of amino acids” value in data set [5] is reported as “(5.48)”.

For the compound `O=C(O)[C@@H]1CCCN1` [proline], in data set [5], the “isoelectric points of amino acids” value was “(6.30)”.

In the case of `N[C@@H](Cc1c[nH]c2ccccc12)C(=O)O` [tryptophan], the “isoelectric points of amino acids” value in data set [5] is given as “(5.89)”.
